Source: patent US10669290B2, “Beta-lactamase inhibitors” (priority 2012, dated 2020)
Like-named read-outs stand apart in the source and are kept apart here.

Experiments:
Type in all cases: cell-based
P. aerug. Ps296 VIM-2 = assay: Broth microdilution MIC, P. aeruginosa Ps296; conditions: Pseudomonas aeruginosa; fixed meropenem 4 μg/mL, CAMHB, 16-20 hours 37° C.; read-out: MIC of exemplary compounds in presence of fixed β-lactams, Fixed Mero, P. aerug. Ps296 VIM-2
Excerpt: (§1) To determine the ability of test compounds to potentiate the inhibition of the growth of bacterial strains that produce beta-lactamase enzymes, classic cell based broth microdilution MIC assays were employed. Six bacteria strains producing beta-lactamase enzymes were used: E. coli expressing the Class A Extended Spectrum Beta-Lactamase (ESBL) CTX-M-15, E. cloacae expressing the Class C P99, K. pneumoniae expressing the Class A carbapenemase KPC-2, P. aeruginosa expressing the Class B carbapenemase VIM-2, K. pneumoniae expressing the class A carbapenemase KPC-2 and the class B carbapenemase VIM-4, and S. aureus producing the Class A penicillinase PC-1. The assay was conducted in Cation Adjusted Mueller Hinton Broth (CAMHB, BD #212322, BD Diagnostic Systems, Sparks, Md.). Bacteria strains were grown for 3-5 hours in CAMBH broth. Test compounds were added to a microtiter plate in 2-fold serial dilutions in CAMHB in a final concentration range of 32 μg/mL to 0.25 μg/ml. An overlay of CAMHB containing a Beta-lactam was added to the compounds at a final static concentration of 4 μg/ml. […] In addition to the titration of test compounds the MICs of a panel of control beta-lactams is also tested to ensure the strains are behaving consistently from test to test. Once the test compound and antibiotics are added the plates can be inoculated according to CLSI broth microdilution method. After inoculation the plates are incubated for 16-20 hours at 37° C. then the Minimal Inhibitory Concentration (MIC) of the test compound is determined visually.
(§2) Using the methodology described above in EXAMPLE III, exemplary compounds for Formula I or Formula Ia were evaluated for their ability to inhibit the growth of β-lactamase producing bacteria in the presence of a β-lactam antibiotic.

K.P. 156319 KPC-3 = assay: Broth microdilution MIC, K. pneumoniae 156319; conditions: Klebsiella pneumoniae; fixed meropenem 4 μg/mL, CAMHB, 16-20 hours 37° C.; read-out: MIC of exemplary compounds in presence of fixed β-lactams, Fixed Mero, K.P. 156319 KPC-3
E. coli ESBL4 CTX-M-15 = assay: Broth microdilution MIC, E. coli ESBL4; conditions: Escherichia coli
Excerpt: as §1, §2

K.P. A-1797 KPC-2 VIM-4 = assay: Broth microdilution MIC, K. pneumoniae A-1797; conditions: Klebsiella pneumoniae; fixed meropenem 4 μg/mL, CAMHB, 16-20 hours 37° C.; read-out: MIC of exemplary compounds in presence of fixed β-lactams, Fixed Mero, K.P. A-1797 KPC-2 VIM-4
Excerpt: as §1, §2

E. cl 144200 p99 AmpC = assay: Broth microdilution MIC, E. cloacae 144200; conditions: Enterobacter cloacae
Excerpt: as §1, §2

S. aureus MSSA-7 PC-1 = assay: Broth microdilution MIC, S. aureus MSSA-7; conditions: Staphylococcus aureus, fixed piperacillin 4 μg/mL, CAMHB, 16-20 hours 37° C., read-out: MIC of exemplary compounds in presence of fixed β-lactams, Fixed Pip, S. aureus MSSA-7 PC-1
Excerpt: as §1, §2

[1] = ESBL4CTXM15, fixed ceftazidime 4 μg/mL, CAMHB, 16-20 hours 37° C., read-out: MIC of exemplary compounds in presence of fixed β-lactams, Fixed CAZ, E. coli ESBL4 CTX-M-15
[2] = fixed ceftazidime 4 μg/mL, CAMHB, 16-20 hours 37° C., read-out: MIC of exemplary compounds in presence of fixed β-lactams, Fixed CAZ, E. cl 144200 p99 AmpC

| MIC (P. aerug. Ps296 VIM-2) | MIC (K.P. 156319 KPC-3) | MIC (E. coli ESBL4 CTX-M-15; [1]) | MIC (K.P. A-1797 KPC-2 VIM-4) | MIC (E. cl 144200 p99 AmpC; [2]) | MIC (S. aureus MSSA-7 PC-1) | Compound | MIC (E. coli ESBL4 CTX-M-15; ESBL4CTXM15, read-out: MIC alone) | MIC (E. cl 144200 p99 AmpC; read-out: MIC alone) |
| --- | --- | --- | --- | --- | --- | --- | --- | --- |
| 8 to 32 µg/mL | < 4 µg/mL | < 4 µg/mL | > 32 µg/mL | < 4 µg/mL | < 4 µg/mL | N[C@H]1CC[C@H](CCC(=O)N[C@H]2Cc3cccc(C(=O)O)c3OB2O)CC1 [Example 21, (R)-3-(3-(trans-4-aminocyclohexyl)propanamido)-2-hydroxy-3,4-dihydro-2H-benzo[e][1,2]oxaborinine-8-carboxylic acid] |  |  |
| < 4 µg/mL | < 4 µg/mL | < 4 µg/mL | < 4 µg/mL | < 4 µg/mL | < 4 µg/mL | NCCN[C@H]1CC[C@@H](CC(=O)N[C@H]2Cc3cccc(C(=O)O)c3OB2O)CC1 [Example 46, (R)-3-(2-(cis-4-(2-aminoethylamino)cyclohexyl)acetamido)-2-hydroxy-3,4-dihydro-2H-benzo[e][1,2]oxaborinine-8-carboxylic acid] |  |  |
| < 4 µg/mL | > 32 µg/mL | < 4 µg/mL | 8 to 32 µg/mL | < 4 µg/mL | < 4 µg/mL | NCCN[C@H]1CC[C@H](CC(=O)N[C@@H]2Cc3cccc(C(=O)O)c3OB2O)CC1 [Example 50, (S)-3-(2-(trans-4-(2-aminoethylamino)cyclohexyl)acetamido)-2-hydroxy-3,4-dihydro-2H-benzo[e][1,2]oxaborinine-8-carboxylic acid] |  |  |
| < 4 µg/mL | < 4 µg/mL | < 4 µg/mL | < 4 µg/mL | < 4 µg/mL | < 4 µg/mL | N=C(N)NCCN[C@H]1CC[C@H](CC(=O)N[C@H]2Cc3cccc(C(=O)O)c3OB2O)CC1 [Example 25, (R)-3-(2-(trans-4-(2-guanidinoethylamino)cyclohexyl)acetamido)-2-hydroxy-3,4-dihydro-2H-benzo[e][1,2]oxaborinine-8-carboxylic acid] |  |  |
| < 4 µg/mL | < 4 µg/mL | < 4 µg/mL | < 4 µg/mL | < 4 µg/mL | < 4 µg/mL | NC1CC(CC(=O)N[C@H]2Cc3cccc(C(=O)O)c3OB2O)C1 (stereo partly drawn) [Example 56, (R)-3-(2-(3-aminocyclobutyl)acetamido)-2-hydroxy-3,4-dihydro-2H-benzo[e][1,2]oxaborinine-8-carboxylic acid] |  |  |
| 8 to 32 µg/mL | < 4 µg/mL | < 4 µg/mL | 8 to 32 µg/mL | < 4 µg/mL | < 4 µg/mL | NCC(=O)N[C@H]1CC[C@H](CC(=O)N[C@H]2Cc3cccc(C(=O)O)c3OB2O)CC1 [Example 68, (R)-3-(2-(trans-4-(2-aminoacetamido)cyclohexyl)acetamido)-2-hydroxy-3,4-dihydro-2H-benzol[e][1,2]oxaborinine-8-carboxylic acid] |  |  |
| < 4 µg/mL | < 4 µg/mL | < 4 µg/mL | < 4 µg/mL | < 4 µg/mL | < 4 µg/mL | O=C(C[C@H]1CC[C@H](NCCO)CC1)N[C@H]1Cc2cccc(C(=O)O)c2OB1O [Example 26, (R)-2-hydroxy-3-(2-(trans-4-(2-hydroxyethylamino)cyclohexyl)acetamido)-3,4-dihydro-2H-benzo[e][1,2]oxaborinine-8-carboxylic acid] |  |  |
| 8 to 32 µg/mL | < 4 µg/mL | < 4 µg/mL | 8 to 32 µg/mL | < 4 µg/mL | < 4 µg/mL | N=C(N)N[C@H]1CC[C@H](CC(=O)N[C@H]2Cc3cccc(C(=O)O)c3OB2O)CC1 [Example 9, (R)-3-(2-(trans-4-guanidinocyclohexyl)acetamido)-2-hydroxy-3,4-dihydro-2H-benzo[e][1,2]oxaborinine-8-carboxylic acid] |  |  |
| 8 to 32 µg/mL | < 4 µg/mL | < 4 µg/mL | 8 to 32 µg/mL | < 4 µg/mL | < 4 µg/mL | CS(=O)(=O)NCCN[C@H]1CC[C@H](CC(=O)N[C@H]2Cc3cccc(C(=O)O)c3OB2O)CC1 [Example 49, (R)-2-hydroxy-3-(2-(trans-4-(2-(methylsulfonamido)ethylamino)cyclohexyl)acetamido)-3,4-dihydro-2H-benzo[e][1,2]oxaborinine-8-carboxylic acid] |  |  |
| < 4 µg/mL | < 4 µg/mL | < 4 µg/mL | 8 to 32 µg/mL | < 4 µg/mL | < 4 µg/mL | O=C(C[C@H]1CC[C@H](NCc2cnc[nH]2)CC1)N[C@H]1Cc2cccc(C(=O)O)c2OB1O [Example 70, (R)-3-(2-(trans-4-((1H-imidazol-5-yl)methylamino)cyclohexyl)acetamido)-2-hydroxy-3,4-dihydro-2H-benzo[e][1,2]oxaborinine-8-carboxylic acid] |  |  |
| 8 to 32 µg/mL | < 4 µg/mL | < 4 µg/mL | < 4 µg/mL | < 4 µg/mL | < 4 µg/mL | N=C(N)N[C@H]1CC[C@H](CCC(=O)N[C@H]2Cc3cccc(C(=O)O)c3OB2O)CC1 [Example 22, (R)-3-(3-(trans-4-guanidinocyclohexyl)propanamido)-2-hydroxy-3,4-dihydro-2H-benzo[e][1,2]oxaborinine-8-carboxylic acid] |  |  |
| < 4 µg/mL | < 4 µg/mL | < 4 µg/mL | 8 to 32 µg/mL | < 4 µg/mL | < 4 µg/mL | NCCNC(=O)NCCN(C(=O)NCCN)C1CC(CC(=O)N[C@H]2Cc3cccc(C(=O)O)c3OB2O)C1 (stereo partly drawn) [Example 57, (R)-3-(2-(3-(3-(2-aminoethyl)-1-(2-(3-(2-aminoethyl)ureido)ethyl)ureido)cyclobutyl)acetamido)-2-hydroxy-3,4-dihydro-2H-benzo[e][1,2]oxaborinine-8-carboxylic acid] |  |  |
| < 4 µg/mL | < 4 µg/mL | < 4 µg/mL | < 4 µg/mL | < 4 µg/mL | < 4 µg/mL | O=C(C[C@H]1CC[C@H](NCCNCCO)CC1)N[C@H]1Cc2cccc(C(=O)O)c2OB1O [Example 61, (R)-2-hydroxy-3-(2-(trans-4-(2-(2-hydroxyethylamino)ethylamino)cyclohexyl)acetamido)-3,4-dihydro-2H-benzo[e][1,2]oxaborinine-8-carboxylic acid] |  |  |
| > 32 µg/mL | < 4 µg/mL | < 4 µg/mL | > 32 µg/mL | < 4 µg/mL | < 4 µg/mL | O=C(CC1CCC(N2CCOCC2)CC1)N[C@H]1Cc2cccc(C(=O)O)c2OB1O (stereo partly drawn) [Example 40, (R)-2-hydroxy-3-(2-(4-morpholinocyclohexyl)acetamido)-3,4-dihydro-2H-benzo[e][1,2]oxaborinine-8-carboxylic acid] |  |  |
| 8 to 32 µg/mL | < 4 µg/mL | < 4 µg/mL | 8 to 32 µg/mL | < 4 µg/mL | < 4 µg/mL | CSCCN[C@H]1CC[C@H](CC(=O)N[C@H]2Cc3cccc(C(=O)O)c3OB2O)CC1 [Example 66, (R)-2-hydroxy-3-(2-(trans-4-(2-(methylthio)ethylamino)cyclohexyl)acetamido)-3,4-dihydro-2H-benzo[e][1,2]oxaborinine-8-carboxylic acid] |  |  |
| 8 to 32 µg/mL | 8 to 32 µg/mL | < 4 µg/mL | > 32 µg/mL | < 4 µg/mL |  | NCC1CCC(CC(=O)N[C@H]2Cc3cccc(C(=O)O)c3OB2O)(C[N+](=O)[O-])CC1 (stereo partly drawn) [Example 12, (R)-3-(2-(4-(aminomethyl)-1-(nitromethyl)cyclohexyl)acetamido)-2-hydroxy-3,4-dihydro-2H-benzo[e][1,2]oxaborinine-8-carboxylic acid] |  |  |
| 8 to 32 µg/mL | < 4 µg/mL | < 4 µg/mL | 8 to 32 µg/mL | < 4 µg/mL |  | NCC1CCC(=CC(=O)N[C@H]2Cc3cccc(C(=O)O)c3OB2O)CC1 (stereo partly drawn) [Example 11, (3R)-3-(2-(4-(aminomethyl)cyclohexylidene)acetamido)-2-hydroxy-3,4-dihydro-2H-benzo[e][1,2]oxaborinine-8-carboxylic acid] |  |  |
|  |  |  |  |  |  | CC(C)(O/N=C(\C(=O)N[C@@H]1C(=O)N2C(C(=O)[O-])=C(C[n+]3ccccc3)CS[C@H]12)c1csc(N)n1)C(=O)O [Ceftazidime, reference compound] | > 128 µg/mL | 128 µg/mL |
